From US10570176B2, “Anti-hepatitis B virus X protein polypeptide pharmaceutical” (priority 2015, dated 2020)
Non-standard residues stand in square brackets, D forms with d. Residues, ends and D or L forms follow the SMILES beside them.

Tests used:
[1] = tested on: HepG2-X cells inoculated tumor in nude mice; assay: Survival of nude mice bearing HepG2-X inoculated tumor; type: in vivo; details: 0.1 mg/kg or 5.0 mg/kg, tail i.v. daily for 30 days
Experimental: Suspend HepG2-X cells at exponential phase by treating with trypsin, count the number of cells, dilute to 1×10^7 cells/mL with sterile physiological saline, and then store in ice water. Take two female BALB/C mice of 4˜6 weeks age: i) one mouse in control group, inject 0.2 mL of above diluted cells to the armpit of right forelimb for each mouse, then only inject 0.5 mL of sterilized distilled water (without polypeptide drugs); ii) one mouse in experimental group with an administration dose of 10 mg/kg weight. Inject 0.2 mL of above diluted cells to the armpit of right forelimb for each mouse, after 20 days of injection, remove tumor tissue aseptically, cut into small tissue pieces, back inoculate to female BALB/C mice of 4˜6 weeks age for 18 mice in total. After tumor volume (V=L×W^2 0.5) reaches 100 mm^3, divide 18 mice into 3 groups each having 6 mice. The first group is control group, tail intravenous injecting with sterile PBS. […] Inject daily for 30 days, measure mice weight and tumor volume before each injection, and observe survival time of nude mice. After mice dies, perform analysis using Kaplan-Meier method to plot survival curve, Log-Rank is employed for statistical analysis.

HepG2.2.15 cells = assay: HBeAg secretion ELISA in HepG2.2.15 cells; type: cell-based; details: 0.1, 1, 10, 100 μM
Experimental: (§1) 3. Analysis of function of D-TTK001 on HBeAg secreation in liver cancer cells utilizing enzyme-linked immunosorbent assay (ELISA)
(§2) (i) Biosafety cabinet was ultraviolet sterilized for 30 min and purged for 30 min; DMEM/F12 (1:1) culture medium containing 15% fetal bovine serum, HepAD38 cells (or HepG2.2.15 cells) were taken out, sterilized with 75% alcohol, and placed in the biosafety cabinet.
(§3) (ii) Under aseptic conditions, discard old culture medium, add 3 mL 1×PBS each time, wash twice, add 1 mL 0.25% trypsin, the cells were digested until cell rounding as observed in microscope. Add 5 mL culture medium, dispense cells, count with hemocytometer, and dilute with culture medium to a cell number of 1˜2×10^4 cells/mL.
(iii) Plating 96-well plate. Under aseptic conditions, discard old culture medium, add 3 mL 1×PBS each time, wash twice, add 1 mL 0.05% trypsin, the cells were digested until cell rounding as observed in microscope. Add 10 mL culture medium, dispense cells, count with hemocytometer, and dilute with DMEM/F12(1:1) culture medium, add 100 μL cell suspension into each well to a cell number of 1˜2×10^3 cells/mL. […]
(§4) (x) Stopping: add 50 μL of stop solution into each well, gently shake and mix, measure the result in ten minutes. Set wavelength of microplate reader to 450 nm, measure OD value for each well after zero setting with blank wells.

in vivo = details: rat, plasma, iv, 3.5 mg/kg
Excerpt: Blood samples were collected and placed the heparinized test tubes according to blood collection times.

[2] = tested on: liver cancer HepAD38 cells integrated with HVB DNA; assay: HBeAg secretion ELISA in HepAD38 cells; type: cell-based
Experimental: as §1, §2, §3
(iii) Plating 96-well plate. Under aseptic conditions, discard old culture medium, add 3 mL 1×PBS each time, wash twice, add 1 mL 0.05% trypsin, the cells were digested until cell rounding as observed in microscope. Add 10 mL culture medium, dispense cells, count with hemocytometer, and dilute with DMEM/F12(1:1) culture medium, add 100 μL cell suspension into each well to a cell number of 1˜2×10^3 cells/mL. The outer-most wells are not added with cells. Culturing until cell attachment (usually 12 hrs.) and extension. Subsequent tests can be conducted when cells are in good condition.
(2) Applying D-TTK001 (or L-TTK001, i.e., anti-HBxP1#) to liver cancer HepAD38 cells (or HepG2.2.15 cells)
10 mM D-TTK001 (or L-TTK001) mother solution was serially diluted from high concentration to low concentration, added into liver cancer HepAD38 cells (or HepG2.2.15 cells) culture solution to obtain final concentrations of D-TTK001 (or L-TTK001) of 0.1 μM, 1 μM, 10 and 100 μM in respective groups. […]
(3) Applying ELISA to measure HBeAg content in HepAD38 cell (or HepG2.2.15 cell) culture medium
(i) Balancing: place HBeAg assay kit in room temperature for 30 min.
(ii) Preparing solution: dilute concentrated wash liquid for 25 times with purified water.
(iii) Taking out the plate: take out the reaction plate according to experimental requirements (3 wells for negative control, 1 well for positive control, and 1 well for blank control).
(iv) Adding sample: add 75 μL of test samples or negative/positive control into respective wells, gently shake and mix.
(v) Incubating: after sealed with microplate sealer, incubate at 37° C. for 60 min.
(vi) Adding enzyme: add 50 μL of enzyme conjugates into each well except for blank wells, gently shake and mix.
(vii) Incubating: after sealed with microplate sealer, incubate at 37° C. for 30 min.
(viii) Washing plate: remove microplate sealer carefully, manually wash plate for 5 times, pat dry.
(ix) Developing color: add 50 μL each of color-developing agent A and B liquid, gently shake and mix, develop color in dark placed at 37° C. for 30 min.
as §4
The invention also investigates the role of the functional variants of the polypeptide and functional fragments thereof. The sequences as shown in the following table are artificially synthesized D-amino acid substituted sequences on the basis of L-TTK001 (i.e., anti-HBxP1#). The polypeptide fragments were artificially synthesized according to the sequences (method as above), and then, above-mentioned ELISA method was adopted to observe the change in the functions of the polypeptides.

[3] = Acute toxicity test in Kunming white mice; type: in vivo; details: 500 mg/kg, tail intravenous injection, observed 24 hrs
Experimental: Control group and experimental group each consists of 10 Kunming white mice, with 5 females and 5 males in each group, respectively. Experimental group were injected with polypeptide D-TTK001 with the concentration of 500 mg/kg (10 mg lyophilized polypeptide dissolved in 0.8 mL sterilized distilled water) by tail intravenous injection; control group were injected with 0.8 mL sterilized distilled water. Consecutively observing the mice for 24 hrs. after injection.

HBV transgenic mice = assay: Pathological observation of liver tissue of HBV transgenic mice; type: in vivo; details: 5 mg/kg, tail intravenous injection, 3 weeks treatment
Experimental: Prepare D-TTK001 aseptically. Administer 2.5 mg/kg (10 mice) or 5.0 mg/kg (42 mice) based on mice weight through tail intravenous injection in a volume of 50 μL. Administer 50 μL of sterile PBS to blank control group (10 mice). Mice are 6-8 months old, half male and half female. Inject daily for 3 weeks (21 days in total). Take artery blood from mice tail before administration for future measurement of HBV DNA content in mice blood, record as T0 group. Take artery blood from mice tail after one week (T1+ group), two weeks (T2+ group), and three weeks (T3+ group) of administration. Take blood after one week of stopping administration (T4 group). Blood samples were standed in room temperature for 2-4 hours to prepare serum. Store samples in −80° C. refrigerator for future measurement of HBV DNA content in mice blood.
After above experiments on HBV transgenic mice were finished, mice were sacrificed, and liver tissue was taken, fixed with formalin, embed with conventional method, to prepare tissue biopsies, pathological observation was then conducted.

HepAD38 cells = assay: MTT assay, proliferation of HepAD38 cells; type: cell-based; details: 0.1, 1, 10, 100 μM, 48 hrs
Experimental: (1) Plating cells: suspend HepAD38 cells at exponential phase in RPMI1640 medium with 10% FBS, and plate 4000-5000 cells in a 96-well plate with 100 μL per well.
(2) Culturing cells: within 12 hrs. for adhesion of cultured cells, add different concentrations of synthesized D-TTK001 (or L-TTK001) polypeptides from Example 1 (0.1 μM, 1 μM, 10 μM and 100 μM) into 8 wells for each concentration, and incubate for 48 hrs. in common condition.
(3) Coloration: add 20 μL of MTT solution (5 mg/mL MTT in PBS buffer (pH7.4)) for each well.
(4) Incubate for 4 hrs., and carefully aspirate off the supernatant from the wells. Add 150 μL of DMSO into each well, shake for 10 min until the crystals were dissolved.
(5) Comparison: Read in an ELISA reader at 490 nm to measure the absorbance for each well. Results were calculated using Student's t-test.

SMILES: CSCC[C@@H](NC(=O)[C@H](NC(=O)[C@@H](C)NC(=O)[C@@H](CO)NC(=O)CN)C(C)C)C(=O)N[C@H](Cc1ccccc1)C(=O)N[C@H](CO)C(=O)N[C@H](CO)C(=O)N[C@H](CCCCN)C(=O)N[C@H](CCC(=O)O)C(=O)N[C@H](CCCNC(=N)N)C(=O)NCC(=O)O [D-TTK001, Gly-D-Ser-D-Ala-D-Val-D-Met-D-Phe-D-Ser-D-Ser-D-Lys-D-Glu-D-Arg-Gly] (H-G[dS][dA][dV][dM][dF][dS][dS][dK][dE][dR]G-OH; N-terminus and C-terminus assumed)
- survival of tumor bearing nude mice [1]: clearly prolonged
- Minimum effective dose on HBeAg secretion levels (HepG2.2.15 cells): 0.1 µM
- C0 (in vivo): 36500 ng/mL
- Vd (in vivo): 0.207 L/kg
- AUC(0-t) (in vivo; AUC0-t, Mean, rats, intravenous injection 3.5 mg/kg, mean of 6): 20800 ng·h/mL
- AUC(0-inf) (in vivo; AUC0-∞, Mean, rats, intravenous injection 3.5 mg/kg, mean of 6): 24100 ng·h/mL
- clearance (in vivo; CL, Mean, rats, intravenous injection 3.5 mg/kg, mean of 6): 3 mL/min/kg
- Cmax (in vivo; Cmax, Mean, rats, intravenous injection 3.5 mg/kg, mean of 6): 35800 ng/mL
- half-life (in vivo; t½, Mean, rats, intravenous injection 3.5 mg/kg, mean of 6): 55.3 min
- Inhibition of HBeAg secretion levels ([2]; 10 μM): most significant effect
- Minimum effective dose on HBeAg secretion levels ([2]; 0.1, 1, 10, 100 μM): 0.1 µM
- acute toxicity: behaviors [3]: do not have abnormal behaviors
- acute toxicity: changes in weight as compared with control group [3]: no abnormal changes in weight
- ballooning degeneration of hepatocytes in liver tissue (HBV transgenic mice): none of 6 mice in experimental group showed ballooning degeneration of hepatocytes
- Minimum effective dose on growth and proliferation (MTT) (HepAD38 cells): 10 µM
